Patent US20240148749A1 (priority 2021, published 2024)

Test system: Cd11b+ microglial cells
Assay: Gene expression of microglial immuno-phenotype markers (RT-qPCR) in Cd11b+ microglial cells sorted from brain at 21 days
Format: in vivo, mouse
Description: We used peritonitis induced by CLP as a model of sepsis (Rittirsch et al., 2009). Briefly, animals were anesthetized with ketamine (Imalgene® 1000 100 mg/kg, Merial, France) and Xylazine (Rompun® 2% 20 mg/kg, Bayer, Germany) prior to surgery. After laparotomy, caecum was ligatured at the distal third with a 4.0 suture and the distal part was perforated twice with a 21 Gauge needle.
MnTBAP is commercially available: it is for example manufactured by Sigma-Aldrich, Calbiochem, etc. For use it is dissolved following the guidance provided by the manufacturer.
Brains were collected for cell dissociation and Cdllb-positive cell separation using a magnetic coupled antibody (MACS® Technology), according to the manufacturer's protocol (Miltenyi Biotec, Bergisch Gladbach, Germany) and as previously described (Schang et al., 2014). In brief, mice were intracardially perfused with NaCl 0,9%. The brains are then dissociated using the Neural Tissue Dissociation Kit containing trypsin and the gentleMACS Octo Dissociator with Heaters. From the resulting brain homogenate, cd11 b-positive cells were enriched using the anti-cd11 b MicroBeads. After elution the isolated cells were centrifuged for 5 min at 200G and conserved at −80° C.
Total RNA was isolated from cells using the RNAeasy Micro kit (Qiagen), and reverse-transcribed using Superscript® III Reverse transcriptase (Invitrogen). Real-time quantitative PCR was performed in duplicate for each sample using Power Sybr Green PCR Master Mix (Applied Biosystems) and the rate of dye incorporation was monitored using the StepOne™ Plus RealTime PCR system (Applied Biosystems). Data were analyzed by StepOne Plus RT PCR software v2.1 and Microsoft excel. Amplification specificity was assessed with a melting curve analysis. TBP transcript levels were used for normalisation of each target (=ΔCT). Real-time PCR CT values were analyzed using the 2^−(ΔCt) method to calculate the fold expression (Schmittgen et al., 2008). The data are presented as relative mRNA units with respect to control group (expressed as fold over control value). Primer sequences available upon request.
We have adopted nomenclature consistent with previous work in microglia (Chhor et al., 2013). We distinguished 3 types of phenotypes according to the mRNA expression levels of markers listed in brackets: pro-inflammatory phentoype (Ptgs2, Cd32, Cd86), alternative phenotype (Lgals3, Igf1 and CD206) and immunoregulatory phenotype (II1rn, II4ra, Socs3).
Quantification of pro-inflammatory markers (CD32, CD86 and Ptgs2 mRNA), anti-inflammatory markers (Lgals3, IGF1 and CD206 mRNA) and immuno-regulator markers (IL1-RA, IL4-Rα and SOCS3 mRNA) by RT-qPCR in Cd11b+ microglial cells magnetically sorted from the brain at 21 days. Control mice were non-operated but anesthetized. The data shown represent median values of n=5 mice per group. Two-way analyses of variance (ANOVAs) CLP vs Control×MnTBAP vs Placebo were performed. […] Data are represented as fold changes using the 2-ΔΔCT method.

O=C(O)c1ccc(/C2=C3\C=CC(=N3)/C(c3ccc(C(=O)O)cc3)=c3/cc/c4[n]3[Mn]([Cl])[n]3c2ccc3/C(c2ccc(C(=O)O)cc2)=C2/C=CC(=N2)\C=4c2ccc(C(=O)O)cc2)cc1 [MnTBAP, Manganese (III) tetrakis (4-benzoic acid)porphyrin chloride]
IL1β expression in microglial cells (CLP-MnTBAP group vs CLP-placebo group, p=0.01, did not differ from Control-placebo): significantly lower | Lgals3 (M2a) gene expression in microglial cells (CLP-MnTBAP group vs CLP-placebo group, p=0.023, did not differ from Control-placebo): significantly lower | microglial immunophenotype (MnTBAP alone (control mice)): did not alter | microglial immunoprofile (septic mice): shifts microglial immunoprofile from a neurotoxic toward a neuroprotective phenotype | Ptgs2 (M1 marker) transcripts in microglial cells (septic mice, MnTBAP compared to the placebo group, p=0.026, did not differ from Control-placebo): significantly reduced | IL1RA (M2b marker) transcripts in microglial cells (septic mice, MnTBAP compared to the placebo group, p=0.047, did not differ from Control-placebo): significantly reduced
